Active and inactive are the calls of the source. No rule for the calls is given here.
Columns and labels:
[1] = system: S. cerevisiae vps1Δ apl2Δ growth inhibition, dose response; assay: vps1Δ apl2Δ double mutant yeast growth inhibitors – S. cerevisiae, background strain comparison, post-Golgi transport modulator project, dose response (AID 788)
[2] = system: S. cerevisiae wild-type background strain growth inhibition; assay: as above; settings: S. cerevisiae vps1Δ apl2Δ growth inhibition, dose response; measured here: wild-type background strain growth

SMILES | IC50 [1] | IC50 [2]
COCCNC(=O)C(c1ccc(F)cc1)N(CC1CCCO1)C(=O)CCC(=O)Nc1ccccn1 (stereo not drawn) | > 10 µM (inactive) | > 10 µM
CCCCC(c1nnnn1Cc1ccco1)N1CCN(c2nc3ccccc3s2)CC1 (stereo not drawn) | 19.7 µM (inactive) | 3.9 µM
O=C(CCl)c1ccc(Cc2ncc(C(F)(F)F)cc2Cl)s1 | 16.2 µM (inactive) | 8.68 µM
CCN(CC)c1ccc(-c2nc3cnccc3n2C)cc1 | > 10 µM (inactive) | > 10 µM
CCOC(=O)c1c(CN2CCCCC2C)oc2ccc(OC)cc12 (stereo not drawn) | > 10 µM (inactive) | > 10 µM
CCOC(=O)c1cc2c(ccn2C)n1CC(=O)N1CCN(c2ccccc2OC)CC1 | > 10 µM (inactive) | > 10 µM
COc1ccccc1N1CCN(CC(O)c2ccc3cc[nH]c3c2)CC1 (stereo not drawn) | > 10 µM (inactive) | > 10 µM
c1ccc(Nc2cc(-c3ccccc3)nc3ncnn23)cc1 | 6.29 µM | > 10 µM
Cc1ccc(CN2CCN(/N=C/c3cc(Br)ccc3O)CC2)cc1 | 4.32 µM | > 10 µM
CC(=O)c1ccc(N2CCN(C(=O)c3ccc(Br)cc3)CC2)c(F)c1 | 0.628 µM | 6.58 µM
Cc1cccc2cc(C#N)c(NCCCn3ccnc3)nc12 | > 10 µM (inactive) | > 10 µM
CCCn1nc([N+](=O)[O-])c(C(C#N)c2nc3ccccc3s2)c(Cl)c1=O (stereo not drawn) | 5.34 µM (inactive) | 2.16 µM
NC(=O)c1ccsc1NC(=O)c1nc(-c2ccccc2)n(-c2ccccc2)n1 | > 10 µM (inactive) | > 10 µM
FC(F)(F)COc1nc(N2CCCCC2)nc(N2CCNCC2)n1 | > 10 µM (inactive) | > 10 µM
CC(C)COC(=O)c1ccc2c(c1O)C(=O)c1ccccc1C2=O | > 10 µM (inactive) | > 10 µM
Cc1cc(=O)[nH]c(SCC(=O)c2ccc(C)c(C)c2)n1 | 2.13 µM | 2.31 µM
CC1=CC(C)(C)Nc2ccc(OC(=O)CN3C(=O)c4cccc5cccc(c45)C3=O)cc21 | > 10 µM (inactive) | > 10 µM
Cc1cccnc1Nc1nc(-c2ccccn2)cs1 | 22.7 µM | > 10 µM
N=c1c2c(-c3ccccc3)c(-c3ccccc3)n(Cc3ccco3)c2ncn1Cc1ccco1 | 16 µM | 21.5 µM
Cc1ccc(C)c(C(=O)NCc2ccncc2)c1 | > 10 µM (inactive) | > 10 µM

SMILES | IC50 [1] | IC50 [2]
O=C(C1CCN(S(=O)(=O)c2cccs2)CC1)N1CCCCCC1 | > 10 µM (inactive) | > 10 µM
COc1ccc2oc(=O)c(-c3nnc(NCc4ccco4)s3)cc2c1 | > 10 µM (inactive) | > 10 µM
CN1CCN(CCCNC(=O)Cn2nc(-c3ccccc3)ccc2=O)CC1 | > 10 µM (inactive) | > 10 µM
CC(C)Cc1[nH]c(=O)c(C#N)c2c1CCC2 | > 10 µM (inactive) | > 10 µM
COC(=O)c1ccc(CSc2nnc(NC(C)C)s2)cc1 | > 10 µM (inactive) | > 10 µM
Cc1ccc(S(=O)(=O)c2c(C)nn(C(C)(C)C)c2OC(=O)c2ccc(Br)o2)cc1 | > 10 µM (inactive) | > 10 µM
CCOCCCNC(=O)c1cc2sc(Cl)cc2n1CC | > 10 µM (inactive) | > 10 µM
CCOc1cccc(C(=O)Nc2cccnc2)c1 | > 10 µM (inactive) | > 10 µM
Cc1ccc2cc(CN(CCO)Cc3nnnn3Cc3ccc(F)cc3)c(=O)[nH]c2c1 | > 10 µM (inactive) | > 10 µM
CCC(C)(C)NC(=O)CN(C(=O)CCC(=O)Nc1ccccn1)c1ccc(F)c(Cl)c1 | > 10 µM (inactive) | > 10 µM
CCOC(=O)COc1ccccc1C1Nc2ccccc2C(=O)N1c1cccc(Cl)c1 (stereo not drawn) | 19.3 µM | > 10 µM
COc1cccc(NC(=O)c2ccc(CN3CCN(c4ccccc4)CC3)cc2)c1 | > 10 µM (inactive) | > 10 µM
Cc1ccc(C(=O)OCn2ncc(Cl)c(Cl)c2=O)cc1 | 4.22 µM | 4.62 µM
CC1CCCCN1CCNC(=O)Cn1nc(-c2ccccc2)ccc1=O (stereo not drawn) | > 10 µM (inactive) | > 10 µM
CCn1c(=O)[nH]c2cc(C(=O)N3CCN(c4ccccc4)CC3)ccc2c1=O | > 10 µM (inactive) | > 10 µM
CC(=O)NC1C(c2nc3ccccc3s2)=C(c2ccccc2)C(=O)N1c1ccc(C)cc1 (stereo not drawn) | 2.62 µM (inactive) | 1.92 µM
O=S(=O)(NCC(c1cccnc1)N1CCN(c2ccccc2)CC1)c1cccs1 (stereo not drawn) | 23 µM | > 10 µM
COc1ccc(C(=O)Nc2ccc(Cl)cc2C(=O)N2CCCC(C)C2)cc1 (stereo not drawn) | > 10 µM (inactive) | > 10 µM
CCOC(=O)c1ccc(NC(=O)c2ccc(CN3CCOCC3)cc2)cc1 | 24.9 µM | > 10 µM
CCOC(=O)Cn1cc(C=O)c2ccccc21 | > 10 µM (inactive) | > 10 µM

SMILES | IC50 [1] | IC50 [2]
COc1cccc(-c2cc(C(=O)N3CCN(C(c4ccccc4)c4ccccc4)CC3)no2)c1 | > 10 µM (inactive) | > 10 µM
O=C(NCCSCc1ccc(Cl)cc1Cl)c1ccc(CN2CCOCC2)cc1 | 13.5 µM | > 10 µM
N#CC1=C2SCC(O)(c3ccccc3)N2C(=O)CC1c1ccccc1 (stereo not drawn) | > 10 µM (inactive) | > 10 µM
CCN(CC)CCn1nc(C)nc1-c1ccccc1O | > 10 µM (inactive) | > 10 µM
Cc1cc(C)nc(N/N=C/C(Cl)=C/c2ccccc2)n1 | > 10 µM (inactive) | > 10 µM
CCSc1nnc(NC(=O)NCC(F)(F)F)s1 | > 10 µM (inactive) | > 10 µM
CCOC(=O)c1cccnc1SCc1cc(=O)n2ccccc2n1 | > 10 µM (inactive) | > 10 µM
COc1ccccc1N1CCN(C2CCN(C(=O)c3cc(OC)c(OC)c(OC)c3)CC2)CC1 | > 10 µM (inactive) | > 10 µM
COc1ccc(C(=O)c2c(C(F)(F)F)oc3c2C(=O)c2ccccc2C3=O)cc1 | 22.7 µM (inactive) | 2.32 µM
CCOC(=O)c1c(NC(=O)CN2CCCCC2)sc2c1CCC(C=O)=C2Cl | > 10 µM (inactive) | > 10 µM
Clc1ccc(Cn2nnc(-c3ccc(CN4CCOCC4)cc3)n2)cc1 | 1.33 µM | > 10 µM
Cc1cc2ncn(CC(O)COc3cccc(C(=O)O)c3)c2cc1C (stereo not drawn) | > 10 µM (inactive) | > 10 µM
Cc1ccc(S(=O)(=O)N2CCN(C3CCN(Cc4ccccc4)CC3)CC2)cc1 | 24.5 µM | > 10 µM
CCn1c(-c2c[nH]c3ccccc23)n[nH]c1=S | > 10 µM (inactive) | > 10 µM
Cc1cc(OCC(F)(F)C(F)(F)C(F)(F)C(F)(F)C(F)(F)C(F)F)nc(N)n1 | > 10 µM (inactive) | > 10 µM
Cc1c(C)c2cc(Cl)c(O)c(CN3CCN(C)CC3)c2oc1=O | > 10 µM (inactive) | > 10 µM
Cc1cc(C)c2c(c1)/C(=C/C(=O)c1ccc(Br)s1)C(=O)N2 | 2.73 µM (inactive) | 1.42 µM
COc1ccc(NC(=O)N(C2CCCCC2)C(C)c2cccnc2)c(OC)c1 (stereo not drawn) | 9.51 µM | 16.7 µM
CCOC(=O)N1CCN(c2ccc(S(=O)(=O)N(Cc3ccccc3)Cc3ccccc3)cn2)CC1 | > 10 µM (inactive) | > 10 µM
